Test results taken from patent US20250268869A1, “METHODS OF USING A (THIAZOLYL)BENZENESULFONAMIDE DERIVATIVE” (Cyteir Therapeutics, Inc., priority 2022, published 2025).

Assays:
human MCT1 = biological target: T1, human MCT1 (Homo sapiens, UniProt P53985); assay: MCT1 Transport Inhibition Assay; format: cell-based; settings: MDCK-II cells overexpressing human MCT1 (with CD147), TPGA transport, LC-MS/MS; read-out: BioIVT MCT1 Transporter IC50
T1 construct: host or cells: MDCK-II cells, transiently co-transfected
T1 sequence (P53985 1-500): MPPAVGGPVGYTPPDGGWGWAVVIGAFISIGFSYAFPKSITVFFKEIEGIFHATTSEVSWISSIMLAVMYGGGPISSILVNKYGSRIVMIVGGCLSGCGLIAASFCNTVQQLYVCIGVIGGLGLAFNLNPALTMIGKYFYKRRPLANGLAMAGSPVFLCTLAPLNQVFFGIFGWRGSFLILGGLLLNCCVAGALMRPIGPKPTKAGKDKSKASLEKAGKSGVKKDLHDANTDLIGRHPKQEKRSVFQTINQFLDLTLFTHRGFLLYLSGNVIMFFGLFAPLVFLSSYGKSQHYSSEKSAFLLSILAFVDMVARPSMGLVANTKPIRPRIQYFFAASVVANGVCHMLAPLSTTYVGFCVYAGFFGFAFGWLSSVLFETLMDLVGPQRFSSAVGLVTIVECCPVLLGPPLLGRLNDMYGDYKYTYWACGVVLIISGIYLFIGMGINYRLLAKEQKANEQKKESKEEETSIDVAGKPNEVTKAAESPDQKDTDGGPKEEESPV
T1 sequence (P35613 140-385 partner limits assumed): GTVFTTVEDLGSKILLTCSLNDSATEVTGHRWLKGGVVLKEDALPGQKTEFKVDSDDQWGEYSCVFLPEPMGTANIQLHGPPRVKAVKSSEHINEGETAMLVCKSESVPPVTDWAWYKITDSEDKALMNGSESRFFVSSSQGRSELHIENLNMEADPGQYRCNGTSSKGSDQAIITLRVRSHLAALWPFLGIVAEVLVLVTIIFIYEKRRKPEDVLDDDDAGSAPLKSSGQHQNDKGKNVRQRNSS
Procedure: Inhibition of MCT1 transport after treatment with compounds of the present invention was measured in MDCK-II cells that overexpress human MCT1 by quantifying the transport of 2-Thiophene-glycoxylic acid (TPGA) into cells using LC-MS/MS.
MDCK-II cells are seeded at 60,000 cells per well in growth medium (low-glucose DMEM+10% FBS) in 96-well trans-well membrane plates, and incubated overnight (37° C., 5% CO2). Cells were co-transfected with mammalian expression constructs coding for MCT1 and CD147 at a 2:1 ratio or an empty vector control (GFP) and then incubated for 48h (37° C., 5% CO2). Cells were washed 3 times with HBSS and cells were preincubated with inhibitors or vehicle control at room temperature in HBSS for 30 min with orbital shaking (60 rpm). HBSS was aspirated from the wells and replaced with HBSS with 25 mM Bis-Tris pH5.5+inhibitor or vehicle control+500 μM TPGA and incubated for 1 min at room temperature with orbital shaking (60 rpm). Both the apical and basolateral side of the trans-well insert were washed 4 times with ice-cold PBS. Cells were lysed with 60 μL of cell extraction solution, and the amount of TPGA in each well was quantified in triplicate by LC-MS/MS. The MCT1-mediated uptake rate was calculated using the following equation: […]
Percent inhibition for each concentration of inhibitor tested was calculated using the following equation: […]
Curves were fit to the calculated percent inhibition for each inhibitor, and the IC50 representing the concentration of inhibitor at which MCT1 is inhibited by 50% was calculated from this curve.

[1] = system: Daudi (Burkitt Lymphoma) cells; assay: Intracellular Lactate Accumulation Assay (Lactate-Glo); format: cell-based; settings: Homo sapiens, 2h treatment, read-out: LactateGlo EC50
Procedure: Intracellular lactate accumulation after a 2h treatment with compounds of the present invention was measured in Daudi (Burkitt Lymphoma) cells using the Lactate-Glo Assay (Promega).
Daudi cells were seeded at 7,500 cells per well in 150 μL of growth medium (RPMI-1640 with 2 mM GlutaMAX+10% FBS) in clear, 96-well, flat-bottom microplates, and incubated overnight (37° C., 5% CO2). Compounds of the present invention were added using an INTEGRA VIAFLO 96 (8 point, 3-fold serial dilution, top concentration 1, 10, or 20 μM, 0.4% final DMSO concentration). After a 2h incubation (37° C., 5% CO2) microplates containing cells were washed twice with 150 μL ice-cold PBS, resuspended in 25 μL ice-cold PBS containing 12.5 μL 0.6N HCl, and placed on a microplate shaker for 5 min to lyse the cells. Following lysis, 12.5 μL 1M Trizma base was added to neutralize the suspension, and microplates were returned to the microplate shaker for 1 min. Plates were sealed and stored at −20° C. until further processing. On the day of the assay, microplates were thawed for 45 min at room temperate and 50 μL Lactate Detection Reagent (prepared as specified by manufacturer) was added to each well. Microplates were placed on a plate shaker for 1 min and incubated at room temperature for 1h. Luminescence was measured using a BioTek Cytation 5 Multi-Mode Reader. Curve fitting and calculation of EC50 was performed using GraphPad Prism.

| IC50 (human MCT1) | EC50 [1] | SMILES |
| --- | --- | --- |
| 50 to 150 nM |  | Cc1[nH]nc(C(F)(F)F)c1Cc1sc2c(c1C(=O)N1C[C@](C)(O)CO1)c(=O)n(C)c(=O)n2C(C)C [AZD3965] |
| 50 to 150 nM |  | O=C(Nc1ccccc1C(=O)O)c1cc(S(=O)(=O)c2ccccc2)ccc1Cl [BAY8002] |
|  | < 50 nM | CCNS(=O)(=O)c1cc(Nc2ccn[nH]2)ccc1-c1cnc([C@H]2CC[C@H](NC(=O)OC(C)C)CC2)s1 [Compound 121, isopropyl trans-N-[4-[5-[2-(ethylsulfamoyl)-4-[(1H-pyrazol-5-yl)amino]phenyl]thiazol-2-yl]cyclohexyl]carbamate] |
| 50 to 150 nM | < 50 nM | CCNS(=O)(=O)c1cc(Nc2ccc(CC)nn2)ccc1-c1cnc([C@H]2CC[C@H](NC(=O)OC(C)C)CC2)s1 [Compound 157, isopropyl trans-N-[4-[5-[4-[(6-ethylpyridazin-3-yl)amino]-2-(ethylsulfamoyl)phenyl]thiazol-2-yl]cyclohexyl]carbamate] |
|  | 1000 to 5000 nM | CC(C)OC(=O)Nc1ccc(-c2cnc(C3CCC(NC(=O)OC(C)C)CC3)s2)c(S(=O)(=O)NCCN(C)C)c1 (stereo not shown) [Compound 175] |
|  | > 5000 nM | CC(C)OC(=O)NC1CCC(c2ncc(-c3ccc(N(C)C(=O)NCc4ccccc4)cc3S(=O)(=O)NC(C)(C)CO)s2)CC1 (stereo not shown) [Compound 176] |
